Values of other authors, collected in patent publication US8461314B2, “Nucleic acid sequences for biosynthesis of non-MccJ25-related lariat peptides” (Rutgers, The State University of New Jersey, priority 2007, dated 2013).

How the values were obtained:
[1] = target: Gram-positive bacterial RNAP (Bacillus subtilis, UniProt P37870+P37871)
[2] = target: bacterial RNA polymerase (Escherichia coli, UniProt P0A8T7+P0A8V2)
[3] = target: Thermus-Deinoccoccus bacterial RNAP (Thermus thermophilus, UniProt Q8RQE8+Q8RQE9); conditions: including, for example
[4] = target: Gram-negative bacterial RNA polymerase (Escherichia coli, UniProt P0A8T7+P0A8V2)
[5] = tested on: Thermococcus-Deinococcus bacterial growth; conditions: Thermococcus-Deinococcus bacteria
[6] = tested on: Escherchia coli
[7] = tested on: RNA polymerase derivatives resistant to rifamycins
[8] = tested on: Gram-positive bacterial; conditions: Gram-positive bacteria
[9] = tested thermal and chemical denaturants
[10] = tested on: mesophilic endo- and exopeptidease
[11] = tested on: Salmonella sp.

Substance | inhibition of Gram-positive bacterial RNAP [1] | inhibition of bacterial RNA polymerase [2] | inhibition of Thermus-Deinoccoccus bacterial RNAP [3] | inhibition of Gram-negative bacterial RNA polymerase [4] | inhibition of bacterial growth [5] | antibacterial activity [6] | ability to inhibit RNA polymerase derivatives resistant to rifamycins [7] | cross-resistance with rifamycins [7] | inhibition of bacterial growth [8] | resistance to denaturation [9] | resistance to proteolysis [10] | antibacterial activity [11]
propeptin | inhibit | inhibit | inhibit | inhibit | – | – | – | – | – | – | – | –
Gly1-Gly2-Ala3-Gly4-His5-Pro6-Val7-Glu8-Tyr9-Phe10-Val11-Gly12-Ile13-Gly14-Thr15-Pro16-Ile17-Ser18-Phe19-Tyr20-Gly21 cyclic(8→1) peptide [MccJ25] | does not inhibit | inhibits | does not inhibit | inhibits | not inhibit | exhibits antibacterial activity | retains full ability to inhibit | no cross-resistance | not inhibit | complete resistance | complete resistance | exhibits antibacterial activity
